Data published in patent US10052320B2, “Substituted quinoxalines as FGFR kinase inhibitors” (ASTEX THERAPEUTICS LIMITED, priority 2011, dated 2018).

Legend:
[1] = biological target: Ba/F3-FGFR1-transfected cells (Homo sapiens, UniProt P11362); test: Ba/F3-FGFR1 (minus IL3) cellular proliferation assay, Alamar Blue; assay type: cell-based; settings: minus IL3, 384 well
Description: Ba/F3-FGFR1 (Minus IL3 or Plus IL3) (Cellular Proliferation Assay)
Cells were put in an incubator at 37° C. and 5% CO2. After 24 hours, 10 μl of Alamar Blue solution (0.5 mM K3Fe(CN)6, 0.5 mM KaFe(CN)6, 0.15 mM Resazurin and 100 mM Phosphate Buffer) was added to the wells, incubated for 4 hours at 37° C. and 5% CO2 before RFU's (Relative Fluorescence Units) (ex. 540 nm., em. 590 nm.) were measured in a flurorescence plate reader. […]
In a 96 well plate, 180 μl cell culture medium (phenol red free RPMI-1640, 10% FBS, 2 mM L-Glutamine and 50 μg/ml Gentamycin) containing 10000 cells per well of Ba/F3-FGFR1-transfected cells were pipette and 20 μl of compound dilution in DMSO was added. Cells were put in an incubator at 37° C. and 5% CO2. After 24 hours, 40 μl of Alamar Blue solution (0.5 mM K3Fe(CN)6, 0.5 mM KaFe(CN)6, 0.15 mM Resazurin and 100 mM Phosphate Buffer) was added to the wells, incubated for 4 hours at 37° C. and 5% CO2 before RFU's (Relative Fluorescence Units) (ex. 540 nm., em. 590 nm.) were measured in a flurorescence plate reader.

[2] = test system: Ba/F3-FGFR1-transfected cells in the presence of 10 ng/ml murine IL3; test: Ba/F3-FGFR1 (plus IL3) cellular proliferation counterscreen, Alamar Blue; assay type: cell-based; settings: Mus musculus; plus IL3, 384 well; read-out: BAF3-FGFR 1 (PLUS IL3) 384 well pIC50 (converted)
Outline: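 Readout: resazurin reduction, RFU at ex 540 nm/em 590 nm, measured after 4 h with Alamar Blue. This follows 24 h compound treatment (DMSO dilutions) at 37 °C, 5% CO2 in phenol red-free RPMI-1640 plus 10% FBS, at 20000 or 10000 cells/well depending on format.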

[3] = biological target: FGFR1 (h) (Homo sapiens, UniProt P11362); test: FGFR1 (enzymatic assay), TR-FRET; assay type: biochemical; settings: read-out: FGFR 1 pIC50 (converted)
Sequence of FGFR1 (h) (P11362 22-822): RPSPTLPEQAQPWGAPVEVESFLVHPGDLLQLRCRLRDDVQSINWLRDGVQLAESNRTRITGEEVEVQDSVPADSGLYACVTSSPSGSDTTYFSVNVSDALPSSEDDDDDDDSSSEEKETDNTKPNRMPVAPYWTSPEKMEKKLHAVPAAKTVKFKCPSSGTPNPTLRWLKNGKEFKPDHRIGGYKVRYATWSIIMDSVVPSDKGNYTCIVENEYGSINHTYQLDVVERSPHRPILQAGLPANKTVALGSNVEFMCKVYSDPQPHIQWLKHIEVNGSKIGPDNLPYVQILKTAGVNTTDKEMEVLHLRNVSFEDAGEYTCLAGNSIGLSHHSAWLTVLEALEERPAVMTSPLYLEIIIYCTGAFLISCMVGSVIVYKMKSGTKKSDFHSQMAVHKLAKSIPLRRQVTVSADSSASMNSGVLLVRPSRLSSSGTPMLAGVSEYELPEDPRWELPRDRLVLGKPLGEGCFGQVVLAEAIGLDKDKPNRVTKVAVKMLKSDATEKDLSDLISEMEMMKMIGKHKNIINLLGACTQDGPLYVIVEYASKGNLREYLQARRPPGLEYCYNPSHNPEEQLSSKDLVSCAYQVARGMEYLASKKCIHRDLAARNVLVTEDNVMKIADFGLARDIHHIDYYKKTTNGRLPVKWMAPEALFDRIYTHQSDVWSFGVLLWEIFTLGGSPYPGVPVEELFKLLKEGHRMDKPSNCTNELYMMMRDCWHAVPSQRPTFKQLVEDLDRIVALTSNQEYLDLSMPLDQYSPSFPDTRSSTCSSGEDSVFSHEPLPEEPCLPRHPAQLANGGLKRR
Description: In a final reaction volume of 30 μL, FGFR1 (h) (25 ng/ml) was incubated with 50 mM HEPES pH 7.5, 6 mM MnCl2, 1 mM DTT, 0.1 mM Na3VO4, 0.01% Triton-X-100, 500 nM Btn-Flt3 and 5 μM ATP in the presence of compound (1% DMSO final). […] Time-Resolved Fluorescence Resonance Energy Transfer (TR-FRET) signal (ex340 nm. Em 620 nm, em 655 nm) was measured afterwards and results are expressed in RFU (Relative Fluorescence Units).

[4] = biological target: T1, Ba/F3-Flt3-transfected cells (Homo sapiens, UniProt P36888, cells depend on it, form not given); test: Ba/F3-Flt3 (minus IL3) cellular proliferation assay, Alamar Blue; assay type: cell-based; settings: minus IL3
T1 sequence (P36888 1-993): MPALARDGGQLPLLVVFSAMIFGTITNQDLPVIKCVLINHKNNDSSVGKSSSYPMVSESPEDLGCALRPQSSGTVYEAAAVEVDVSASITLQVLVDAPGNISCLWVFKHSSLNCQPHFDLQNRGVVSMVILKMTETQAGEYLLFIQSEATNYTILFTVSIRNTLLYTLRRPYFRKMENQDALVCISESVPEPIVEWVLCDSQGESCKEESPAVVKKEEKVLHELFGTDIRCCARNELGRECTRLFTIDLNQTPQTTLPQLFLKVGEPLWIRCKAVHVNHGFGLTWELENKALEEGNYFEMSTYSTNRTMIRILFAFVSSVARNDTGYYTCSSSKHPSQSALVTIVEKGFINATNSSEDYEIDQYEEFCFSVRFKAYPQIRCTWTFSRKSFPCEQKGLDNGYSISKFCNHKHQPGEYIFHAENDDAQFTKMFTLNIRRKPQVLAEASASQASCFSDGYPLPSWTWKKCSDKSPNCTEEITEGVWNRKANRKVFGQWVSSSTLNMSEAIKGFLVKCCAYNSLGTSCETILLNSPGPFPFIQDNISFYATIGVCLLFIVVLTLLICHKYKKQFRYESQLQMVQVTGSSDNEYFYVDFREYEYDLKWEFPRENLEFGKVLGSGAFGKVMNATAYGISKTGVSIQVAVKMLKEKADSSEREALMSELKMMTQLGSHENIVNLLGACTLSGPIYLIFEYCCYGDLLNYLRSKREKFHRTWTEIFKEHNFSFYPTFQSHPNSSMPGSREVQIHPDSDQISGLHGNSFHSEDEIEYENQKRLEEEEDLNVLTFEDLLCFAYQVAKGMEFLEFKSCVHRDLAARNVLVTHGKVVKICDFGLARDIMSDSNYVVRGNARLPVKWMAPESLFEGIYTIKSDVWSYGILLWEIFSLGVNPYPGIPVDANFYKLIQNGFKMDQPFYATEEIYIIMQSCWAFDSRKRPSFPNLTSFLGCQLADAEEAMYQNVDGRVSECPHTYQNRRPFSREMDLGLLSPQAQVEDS

Sequence of Ba/F3-FGFR1-transfected cells (P11362 whole entry, change not shown): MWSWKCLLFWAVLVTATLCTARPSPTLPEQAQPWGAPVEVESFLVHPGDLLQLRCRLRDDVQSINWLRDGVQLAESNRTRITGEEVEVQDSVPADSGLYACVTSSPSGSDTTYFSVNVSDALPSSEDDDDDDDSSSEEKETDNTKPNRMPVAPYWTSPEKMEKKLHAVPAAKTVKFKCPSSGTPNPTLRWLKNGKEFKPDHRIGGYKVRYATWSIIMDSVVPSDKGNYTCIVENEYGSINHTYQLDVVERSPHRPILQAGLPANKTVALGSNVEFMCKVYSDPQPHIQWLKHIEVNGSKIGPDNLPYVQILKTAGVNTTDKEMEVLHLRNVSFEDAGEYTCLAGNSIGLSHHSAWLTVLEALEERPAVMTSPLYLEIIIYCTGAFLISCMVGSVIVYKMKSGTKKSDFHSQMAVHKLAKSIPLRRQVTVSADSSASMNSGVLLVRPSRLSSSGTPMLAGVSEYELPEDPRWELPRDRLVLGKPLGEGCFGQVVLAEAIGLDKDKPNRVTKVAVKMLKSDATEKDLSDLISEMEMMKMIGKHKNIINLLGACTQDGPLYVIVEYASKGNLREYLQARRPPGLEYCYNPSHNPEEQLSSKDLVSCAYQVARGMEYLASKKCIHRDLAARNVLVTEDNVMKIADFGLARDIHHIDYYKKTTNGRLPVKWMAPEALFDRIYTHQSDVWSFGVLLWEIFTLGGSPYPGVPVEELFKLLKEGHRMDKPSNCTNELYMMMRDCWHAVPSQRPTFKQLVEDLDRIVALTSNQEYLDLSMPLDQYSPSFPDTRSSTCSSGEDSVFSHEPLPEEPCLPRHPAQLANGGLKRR

Row | Compound | BAF3-FGFR 1 (MIN IL3) 384 well pIC50 [1] | IC50 [3] [nM] | BAF3-FLT3 (MIN IL3) 384 well pIC50 [4] | IC50 [2] [nM]
1 | COc1cc(OC)cc(N(CCCNC(C)C)c2ccc3ncc(-c4ccnc(NC(=O)NC(C)C)c4)nc3c2)c1 [Compound 131] | 6.44 | 2.09 | 5.5 | 3980
2 | COc1cc(OC)cc(N(CCCNCCCO)c2ccc3ncc(-c4ccnc(C(=O)NCCCCN)c4)nc3c2)c1 [Compound 132] | 5.8 | 4.37 | 5.31 | > 10000
3 | COc1cc(OC)cc(N(CCCO)c2ccc3ncc(-c4ccnc(-c5ccnc(Cl)c5)c4)nc3c2)c1 [Compound 133] | <5 | 110 | <5 | > 10000
4 | COc1cc(OC)cc(N(CCO)c2ccc3ncc(-c4ccnc(C(=O)NCCCCCO)c4)nc3c2)c1 [Compound 139] | 5.35 | 31.6 | <5 | > 10000
5 | COc1cc(OC)cc(N(CCCNC(C)C)c2ccc3ncc(-c4ccnc(N)c4)nc3c2)c1 [Compound 143] | 6.56 | 1.05 | ~5.25 | 5620
6 | COc1cc(OC)cc(N(CCCNCC(F)(F)F)c2ccc3ncc(-c4ccnc(F)c4)nc3c2)c1 [Compound 144] | <5 | 74.1 | <5 | > 10000
7 | COc1cc(OC)cc(N(CCCNCC(F)(F)F)c2ccc3ncc(-c4ccnc(Cl)c4)nc3c2)c1 [Compound 145] | <5 | 115 | <5 | > 10000

Now from value to compound, other results behind:

Row | BAF3-FGFR 1 (MIN IL3) 384 well pIC50 [1] | IC50 [3] [nM] | BAF3-FLT3 (MIN IL3) 384 well pIC50 [4] | Compound | IC50 [2] [nM]
8 | 6.46 | 2 | <5 | COc1cc(OC)cc(N(CCNC(C)C)c2ccc3ncc(-c4ccnc(C(=O)NCCCN)c4)nc3c2)c1 [Compound 146] | > 10000
9 | <5 | 36.3 | <5 | COc1cc(OC)cc(N(CCCNCC(F)(F)F)c2ccc3ncc(-c4ccnc(C(=O)NCCCN)c4)nc3c2)c1 [Compound 148] | > 10000
10 | 5.32 | 60.3 | <5 | COc1cc(OC)cc(N(CCCO)c2ccc3ncc(-c4cccnc4F)nc3c2)c1 [Compound 149] | > 10000
11 | 5.16 | 91.2 | <5 | COc1cc(OC)cc(N(CCCNCC(F)(F)F)c2ccc3ncc(-c4ccnc(C(=O)NCCCCCO)c4)nc3c2)c1 [Compound 150] | > 10000
12 | 5.52 | 282 | <5 | COc1cc(OC)cc(N(CCO)c2ccc3ncc(-c4ccccc4CCO)nc3c2)c1 [Compound 151] | > 10000
13 | 5.7 | 45.7 | <5 | COc1cc(OC)cc(N(CCO)c2ccc3ncc(-c4ccc(N5CCN(C(=O)OC(C)(C)C)CC5)cc4)nc3c2)c1 [Compound 156] | 8910
14 | <5 | 398 | <5 | COc1cc(OC)cc(N(CCCNCC(F)(F)F)c2ccc3ncc(C(=O)NCCN4CCOCC4)nc3c2)c1 [Compound 158] | > 10000
15 | 5.74 | 31.6 | <5 | COc1cc(OC)cc(N(CCNC(C)C)c2ccc3ncc(C(=O)NCCCN4CCN(C)CC4)nc3c2)c1 [Compound 159] | > 10000
16 | 5.86 | 42.7 | <5 | COc1cc(OC)cc(N(CCNC(C)C)c2ccc3ncc(C(=O)NCCN4CCOCC4)nc3c2)c1 [Compound 160] | > 10000
